Assay results published in PMC12010006, “Subnanomolar MAS-related G protein-coupled receptor-X2/B2 antagonists with efficacy in human mast cells and disease models” (Signal Transduction and Targeted Therapy, 2025).
Like-named read-outs stand apart in the source and are kept apart here. One block for each compound: values may come before it.

Assays:
Type in all cases: cell-based
MRGPRX1 = molecular target: T1, MRGPRX1 (Homo sapiens, UniProt Q96LB2); experiment: β-arrestin assay, CHO cells expressing MRGPRX1 (subtype selectivity); details: 10 µM, versus BAM-22P (8.5 µM)
T1 construct: host or cells: CHO-K1 beta-arrestin-2 (EA) cells
Experimental: (§1) Fig. 1 Characterization of MRGPRX2 inhibitor 1. a Chemical structure and molecular weight (MW) of 1. b Concentration-response curve of 1 determined in β-arrestin recruitment assays. CHO cells that recombinantly express MRGPRX2 were employed versus the agonist CST-14 (at its EC80 value of 1.0 µM). […] Data are means ± SEM of 3 biological replicates, performed in duplicates. c MRGPRX subtype selectivity of 1 (10 µM) determined in β-arrestin assays using CHO cells that recombinantly express the respective MRGPRX subtype. MRGPRX1 was activated by BAM-22P (8.5 µM),[19] MRGPRX2 was activated by CST-14 (1 µM), MRGPRX3 was activated by PSB-20294 (1 µM), and MRGPRX4 by PSB-18061 (2.6 µM).[44] […] The effect of each MRGPRX agonist was assessed in the absence and in the presence of 1; results were normalized to the maximal agonist effect. […] Statistical significance was determined by one-way ANOVA (Tukey’s multiple comparisons) test (ns P > 0.05 and ****P < 0.0001) TEXT PRINTED IN THE PICTURE: (a) 1 Hit compound: MW: 241.29 g/mol
(§2) Fig. 3 Biological characterization of PSB-172656. a Selectivity of PSB-172656 (100 nM) for MRGPRX2 over MRGPRX1, MRGPRX3, and MRGPRX4 measured in β-arrestin assays utilizing β-arrestin-CHO cells with recombinant expression of the respective receptor. […] Statistical significance was determined by one-way ANOVA (Tukey’s multiple comparison) test (ns P > 0.05). […]

MRGPRX4 = molecular target: T2, MRGPRX4 (Homo sapiens, UniProt Q96LA9); experiment: β-arrestin assay, CHO cells expressing MRGPRX4 (subtype selectivity); details: 10 µM, versus PSB-18061 (2.6 µM)
T2 construct: host or cells: CHO-K1 beta-arrestin-2 (EA) cells
Experimental: as §1, §2

MRGPRX2 [1] = molecular target: T3, MRGPRX2 (Homo sapiens, UniProt Q96LB1); experiment: β-arrestin assay (agonist mode), β-arrestin CHO cells recombinantly expressing MRGPRX2; details: for EC50: agonist test, read-out: β-Arrestin assay EC50 ± SEM; for β-Arrestin assay % activation: normalized to CST-14 (EC80 5,000 nM)
T3 sequence (Q96LB1 1-330): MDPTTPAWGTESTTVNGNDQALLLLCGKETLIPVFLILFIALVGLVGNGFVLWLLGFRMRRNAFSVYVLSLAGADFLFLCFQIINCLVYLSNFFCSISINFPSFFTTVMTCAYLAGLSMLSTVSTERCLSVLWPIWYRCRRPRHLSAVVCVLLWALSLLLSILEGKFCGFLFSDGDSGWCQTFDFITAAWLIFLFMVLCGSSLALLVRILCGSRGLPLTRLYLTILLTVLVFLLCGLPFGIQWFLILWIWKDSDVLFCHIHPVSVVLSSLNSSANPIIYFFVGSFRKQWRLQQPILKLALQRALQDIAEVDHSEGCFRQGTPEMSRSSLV
Description: Eurofins DiscoverX (Fremont, CA, USA) provided engineered Chinese hamster ovary (CHO) cells stably expressing β-arrestin-2 fused to a large β-galactosidase fragment (enzyme acceptor, EA). These CHO-K1-β-arrestin-2 cells were commercially available (93-0164). CHO-K1-β-arrestin-2 cells that additionally expressed MRGPRX1, -2, or -4 fused to the fragment ProLink™ (PK) were also purchased from the same company (93-0919C2, 93-0309C2, and 3-0541C2A, respectively). CHO cells expressing MRGPRX3 were generated as previously […].[31] The cells were grown in F-12 Ham Nutrient Mixture (Life Technologies) supplemented with 10% FBS, 100 U/mL of penicillin, 100 µg/mL of streptomycin (PAN-Biotech), 300 μg/mL of hygromycin B (PAN-Biotech), and 800 μg/mL of gentamicin (PAN-Biotech) at 37 °C and 5% CO2.).
The assays were carried out as previously described.[22] […] After 30 min of incubation at 37 °C and 5% CO2, Cortistatin-14 (CST-14, Bioscience, Bristol, United Kingdom) or another MRGPRX2 agonist that served as a standard agonist was added, and the mixture was incubated for 90 min at 37 °C and 5% CO2. Next, a detection reagent (50 µL, DiscoverX) was added, and the mixture was incubated at room temperature in the dark for 60 min. Chemiluminescence was measured on a Mithras LB 940 plate reader (Berthold Technologies, Bad Wildbad, Germany). The results represent means ± SEM of three to five independent experiments, each in duplicates.
^d β-Arrestin CHO cells recombinantly expressing MRGPRX2
^f Percentage of activation of normalized to CST-14 (EC80 5,000 nM)

MRGPRX2 [2] = molecular target: T3, MRGPRX2; experiment: β-arrestin recruitment assay (antagonist mode), β-arrestin-CHO cells recombinantly expressing MRGPRX2; design: expressed in transfected cells
[3] = versus CST-14 (EC80 1,000 nM, EC50 483 nM), Cheng-Prusoff, read-out: β-Arrestin assay Ki ± SEM

T2 sequence (Q96LA9 whole entry): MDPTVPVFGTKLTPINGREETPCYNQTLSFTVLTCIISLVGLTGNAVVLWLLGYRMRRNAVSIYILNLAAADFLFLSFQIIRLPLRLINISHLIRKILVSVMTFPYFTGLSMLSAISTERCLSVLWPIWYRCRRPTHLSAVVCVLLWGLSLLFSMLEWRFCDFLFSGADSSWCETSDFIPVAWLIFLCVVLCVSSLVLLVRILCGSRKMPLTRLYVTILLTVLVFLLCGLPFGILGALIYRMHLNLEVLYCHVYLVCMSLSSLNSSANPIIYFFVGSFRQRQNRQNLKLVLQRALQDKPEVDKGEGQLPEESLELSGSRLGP
T1 sequence (Q96LB2 whole entry): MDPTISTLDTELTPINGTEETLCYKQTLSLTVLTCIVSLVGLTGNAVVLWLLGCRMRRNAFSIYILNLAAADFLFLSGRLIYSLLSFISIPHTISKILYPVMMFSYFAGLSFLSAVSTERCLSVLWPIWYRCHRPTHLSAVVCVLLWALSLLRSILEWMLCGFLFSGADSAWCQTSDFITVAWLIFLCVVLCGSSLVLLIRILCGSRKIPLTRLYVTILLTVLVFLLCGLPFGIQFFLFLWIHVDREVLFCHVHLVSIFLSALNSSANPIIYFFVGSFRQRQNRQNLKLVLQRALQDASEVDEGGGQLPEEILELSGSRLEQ

inhibition of MRGPRX1 activation (MRGPRX1): not able to block | inhibition of MRGPRX4 activation (MRGPRX4): not able to block | EC50 (MRGPRX2 [1]): > 10000 nM | β-Arrestin assay % activation (MRGPRX2 [1]): -1% | blockade of MRGPRX2 activation (MRGPRX2 [2]; 10 µM, versus CST-14 (1 µM)): completely blocked | difference of Ki versus other agonists from the Ki value versus CST-14 (MRGPRX2 [2]; all investigated agonists): < 2 fold | Schild plot slope (MRGPRX2 [2]; versus (R)-ZINC-3573): 0.891 | IC50 (MRGPRX2 [2]; versus (R)-ZINC-3573 (EC80 2 µM), read-out: IC50 versus (R)-ZINC-3573, β-arrestin assay): 11.3 ± 3.1 nM | Ki (MRGPRX2 [2]; versus (R)-ZINC-3573 (EC80 2 µM), read-out: Ki versus (R)-ZINC-3573, β-arrestin assay): 5.44 nM | Kb (MRGPRX2 [2]; versus (R)-ZINC-3573, read-out: KB value (Schild plot)): 7.59 nM | Kb (MRGPRX2 [2]; versus (R)-ZINC-3573, read-out: pKB value (Schild plot) (converted)): 7.41 nM | Ki (MRGPRX2 [2]; versus C48/80 (EC80 18 µM), read-out: Ki versus compound 48/80, β-arrestin assay): 3.68 nM | Ki (MRGPRX2 [2]; [3]): 6.81 nM | Kb (MRGPRX2 [2]; versus CST-14, read-out: pKB value (Schild plot) (converted)): 6.76 nM | mode of action (inhibition type) (MRGPRX2 [2]; versus CST-14 and (R)-ZINC-3573): competitive mode of action | selectivity for MRGPRX2 versus other MRGPRX subtypes (MRGPRX2 [2]; versus MRGPRX1, -X3, -X4): at least 1000 fold | IC50 (MRGPRX2 [2]; versus SP (EC80 3 µM), read-out: IC50 versus substance P, β-arrestin assay): 30.5 ± 6.3 nM | Ki (MRGPRX2 [2]; versus SP (EC80 3 µM), read-out: Ki versus substance P, β-arrestin assay): 8.82 nM | IC50 (MRGPRX2 [2]; versus clomipramine (EC80 13 µM), read-out: IC50 versus clomipramine, β-arrestin assay): 17.2 ± 0.4 nM | Ki (MRGPRX2 [2]; versus clomipramine (EC80 13 µM), read-out: Ki versus clomipramine, β-arrestin assay): 7.04 nM
Compound: CCc1c(C(C)C)[nH]c2nc3cc(F)c(F)cc3n2c1=O [Compound 24, 3-ethyl-7,8-difluoro-2-isopropylbenzo[4,5]imidazo [1,2-a] pyrimidin-4(1H)-one]

inhibition of MRGPRX1 activation (MRGPRX1): no inhibition | inhibition of MRGPRX4 activation (MRGPRX4): no inhibition | EC50 (MRGPRX2 [1]): > 10000 nM | β-Arrestin assay % activation (MRGPRX2 [1]): 1% | IC50 (MRGPRX2 [2]; versus CST-14 (EC80 1.0 µM), read-out: IC50, β-arrestin assay): 2420 ± 220 nM | Ki (MRGPRX2 [2]; [3]): 788 ± 143 nM
Compound: CCCc1c(C)[nH]c2nc3ccccc3n2c1=O [Compound 1, 2-methyl-3-propylbenzo[4,5]imidazo[1,2-a]pyrimidin-4(1H)-one]
